According to patent US12448433B2, “Human ApoB100 epitopes, methods and uses for modulating inflammatory responses, and treating adverse cardiovascular events, disease and atherosclerosis” (LA JOLLA INSTITUTE FOR ALLERGY AND IMMUNOLOGY, priority 2015, dated 2025):
pIC50: −log10 of the molar value. No end group written: not given here.

Key:
[1] = molecular target: DQB1*06:02; experiment: Peptide binding to HLA-DQ allele, competition assay; set-up: species or system human
Source text: (§1) Peptide binding to MHC-II requires anchor residues in certain positions and thus can be predicted using computer algorithms. Affinity can be measured experimentally using a competition assay (1). Both are excellent screening tools. However, affinity must be measured separately for each MHC-II allele. Humans express molecules encoded in four different MHC-II loci, denominated HLA-DRB1, DRB3/4/5, DP and DQ. Allelic variation is large, and most people are heterozygous at each locus, thus expressing up to 8 relevant MHC-II alleles. CD4 T cell responses strictly require that the antigenic peptide binds to the relevant MHC-II.
(§2) To identify peptides that could potentially be used in human patients, 30 peptides were screened for binding to 26 HLA alleles by competition assay.

[2] = molecular target: DPB1*02:01; experiment: Peptide binding to HLA-DP allele, competition assay; set-up: species or system human
Source text: as §1, §2

[3] = molecular target: DPB1*14:01; experiment: as above; set-up: species or system human
Source text: as §1, §2

[4] = molecular target: DPB1*05:01; experiment: as above; set-up: species or system human
Source text: as §1, §2

[5] = molecular target: DPB1*04:02; experiment: as above; set-up: species or system human
Source text: as §1, §2

[6] = molecular target: T1, DPB1*04:01 (Homo sapiens, UniProt P04440); experiment: as above
T1 sequence (P04440 30-258): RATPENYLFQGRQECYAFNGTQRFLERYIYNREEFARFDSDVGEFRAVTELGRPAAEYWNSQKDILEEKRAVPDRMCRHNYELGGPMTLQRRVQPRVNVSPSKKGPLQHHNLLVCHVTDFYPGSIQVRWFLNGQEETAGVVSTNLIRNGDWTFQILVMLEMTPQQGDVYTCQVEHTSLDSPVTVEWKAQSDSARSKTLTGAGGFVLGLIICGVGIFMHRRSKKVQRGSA
T1 sequence (P20036 29-260 partner): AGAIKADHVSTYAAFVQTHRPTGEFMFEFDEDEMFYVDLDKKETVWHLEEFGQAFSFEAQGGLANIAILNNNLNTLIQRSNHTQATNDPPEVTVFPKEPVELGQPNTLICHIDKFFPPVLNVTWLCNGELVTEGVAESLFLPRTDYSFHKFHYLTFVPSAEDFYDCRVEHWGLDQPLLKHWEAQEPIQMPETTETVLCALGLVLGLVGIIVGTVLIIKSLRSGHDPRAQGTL
Source text: as §1, §2

[7] = molecular target: DQB1*05:01; experiment: Peptide binding to HLA-DQ allele, competition assay; set-up: species or system human
Source text: as §1, §2

Compound | pIC50 [1] | pIC50 [2] | pIC50 [3] | pIC50 [4] | pIC50 [5] | pIC50 [6] | pIC50 [7]
CC(C)C[C@H](NC(=O)[C@H](C)NC(=O)[C@H](Cc1ccccc1)NC(=O)[C@H](CO)NC(=O)[C@H](CO)NC(=O)[C@@H](NC(=O)[C@H](CCCNC(=N)N)NC(=O)[C@H](CC(C)C)NC(=O)[C@H](CCCCN)NC(=O)[C@H](CCCCN)NC(=O)[C@@H](N)Cc1ccc(O)cc1)[C@@H](C)O)C(=O)N[C@@H](CC(N)=O)C(=O)N[C@@H](CC(C)C)C(=O)N1CCC[C@H]1C(=O)N[C@H](C(=O)O)[C@@H](C)O [Peptide 3563.0022] | 5.58 | 8.48 | 7.82 | 6.66 | 7.17 | 8.68 | –
CC[C@H](C)[C@H](NC(=O)[C@H](CC(C)C)NC(=O)[C@@H](N)CC(C)C)C(=O)N[C@@H](CC(=O)O)C(=O)N[C@H](C(=O)N[C@H](C(=O)N[C@H](C(=O)N[C@@H](Cc1ccc(O)cc1)C(=O)N[C@@H](CC(C)C)C(=O)N[C@H](C(=O)N[C@@H](C)C(=O)N[C@@H](CC(C)C)C(=O)N[C@H](C(=O)N1CCC[C@H]1C(=O)N[C@@H](CCC(=O)O)C(=O)O)[C@@H](C)CC)C(C)C)[C@@H](C)O)C(C)C)C(C)C [Peptide 3563.0002] | 4.41 | – | 5.07 | – | – | – | 5.44
CC[C@H](C)[C@H](N)C(=O)N[C@@H](CC(=O)O)C(=O)N[C@@H](CC(C)C)C(=O)N[C@@H](CO)C(=O)N[C@H](C(=O)N[C@@H](CCC(N)=O)C(=O)N[C@@H](CC(N)=O)C(=O)N[C@@H](Cc1ccc(O)cc1)C(=O)N[C@@H](Cc1c[nH]cn1)C(=O)N[C@H](C(=O)N[C@@H](Cc1ccccc1)C(=O)N[C@@H](CC(C)C)C(=O)N[C@H](C(=O)N[C@@H](Cc1ccc(O)cc1)C(=O)N[C@H](C(=O)O)[C@@H](C)CC)[C@@H](C)CC)[C@@H](C)O)[C@@H](C)CC [Peptide 3563.0029] | – | 4.63 | – | 5.04 | 4.81 | 4.60 | –
CC[C@H](C)[C@H](NC(=O)[C@H](Cc1ccc(O)cc1)NC(=O)[C@H](Cc1c[nH]cn1)NC(=O)[C@H](CC(C)C)NC(=O)[C@@H](N)Cc1ccccc1)C(=O)N[C@@H](Cc1ccccc1)C(=O)N[C@@H](CCSC)C(=O)N[C@@H](CCC(=O)O)C(=O)N[C@@H](CC(N)=O)C(=O)N[C@@H](C)C(=O)N[C@@H](Cc1ccccc1)C(=O)N[C@@H](CCC(=O)O)C(=O)N[C@@H](CC(C)C)C(=O)N1CCC[C@H]1C(=O)N[C@H](C(=O)O)[C@@H](C)O [Peptide 3563.0006] | – | 7.40 | – | – | 8.36 | 7.49 | 7.41
CC[C@H](C)[C@H](NC(=O)[C@H](Cc1ccc(O)cc1)NC(=O)[C@H](CCC(N)=O)NC(=O)[C@H](Cc1c[nH]cn1)NC(=O)[C@@H](NC(=O)[C@@H](N)CCC(N)=O)[C@@H](C)CC)C(=O)N[C@@H](CCSC)C(=O)N[C@@H](C)C(=O)N[C@@H](CC(C)C)C(=O)N[C@@H](CCCNC(=N)N)C(=O)N[C@@H](CCC(=O)O)C(=O)N[C@@H](CCC(=O)O)C(=O)N[C@@H](Cc1ccc(O)cc1)C(=O)N[C@@H](Cc1ccccc1)C(=O)N[C@@H](CC(=O)O)C(=O)O [Peptide 3563.0027] | 6.05 | 7.10 | 5.74 | 6.91 | 7.29 | 6.09 | –
LSQLTYMIQFDQYI [Peptide 3563.0012] | 4.37 | 6.24 | – | 5.38 | 6.21 | – | 7.55
CC[C@H](C)[C@H](NC(=O)CNC(=O)[C@H](CCSC)NC(=O)[C@H](CC(N)=O)NC(=O)[C@@H](NC(=O)[C@@H](NC(=O)[C@H](Cc1ccccc1)NC(=O)[C@H](CCC(=O)O)NC(=O)[C@@H](N)C(C)C)C(C)C)[C@@H](C)O)C(=O)N[C@H](C(=O)N[C@H](C(=O)N1CCC[C@H]1C(=O)N[C@@H](CC(=O)O)C(=O)N[C@@H](Cc1ccccc1)C(=O)N[C@@H](C)C(=O)O)[C@@H](C)CC)[C@@H](C)CC [Peptide 3563.0007] | 5.08 | 7.92 | 4.81 | 5.17 | – | – | 6.64
CC[C@H](C)[C@H](NC(=O)[C@H](CO)NC(=O)[C@H](Cc1ccc(O)cc1)NC(=O)[C@H](CC(C)C)NC(=O)[C@H](CCCCN)NC(=O)CN)C(=O)N[C@@H](CC(C)C)C(=O)N[C@@H](CCCCN)C(=O)N[C@H](C(=O)N[C@@H](CCC(N)=O)C(=O)N[C@@H](CO)C(=O)N1CCC[C@H]1C(=O)N[C@@H](CC(C)C)C(=O)N[C@@H](Cc1ccccc1)C(=O)N[C@H](C(=O)O)[C@@H](C)O)[C@@H](C)CC [Peptide 3563.0016] | – | 5.04 | 5.15 | 5.62 | 6.38 | 5.68 | 5.22
CC(C)C[C@H](NC(=O)[C@H](CC(C)C)NC(=O)[C@H](CC(C)C)NC(=O)[C@H](CC(C)C)NC(=O)[C@H](C)NC(=O)[C@@H]1CCCN1C(=O)[C@H](CC(C)C)NC(=O)[C@H](C)NC(=O)[C@H](CC(C)C)NC(=O)[C@H](CC(C)C)NC(=O)[C@H](C)NC(=O)[C@H](CC(C)C)NC(=O)[C@H](CC(C)C)NC(=O)[C@H](C)NC(=O)[C@@H]1CCCN1)C(=O)O [Peptide 3563.001] | 4.62 | – | – | 5.18 | 5.79 | 4.85 | –
CC[C@H](C)[C@H](NC(=O)[C@H](CC(=O)O)NC(=O)[C@H](CC(C)C)NC(=O)[C@H](CC(C)C)NC(=O)[C@H](CCC(=O)O)NC(=O)[C@@H](N)CCC(N)=O)C(=O)N[C@@H](C)C(=O)N[C@@H](CC(N)=O)C(=O)N[C@@H](Cc1ccc(O)cc1)C(=O)N[C@@H](CC(C)C)C(=O)N[C@@H](CCSC)C(=O)N[C@@H](CCC(=O)O)C(=O)N[C@@H](CCC(N)=O)C(=O)N[C@H](C(=O)N[C@@H](CCC(N)=O)C(=O)O)[C@@H](C)CC [Peptide 3563.0003] | 5.61 | 5.75 | – | – | 6.74 | 5.59 | 8.40
CC[C@H](C)[C@H](NC(=O)[C@H](CCC(=O)O)NC(=O)[C@H](CC(=O)O)NC(=O)[C@@H](NC(=O)[C@@H](NC(=O)[C@H](CC(N)=O)NC(=O)[C@H](C)NC(=O)[C@@H](NC(=O)[C@H](C)NC(=O)[C@@H](NC(=O)[C@H](CCCCN)NC(=O)[C@H](CC(C)C)NC(=O)[C@H](CC(=O)O)NC(=O)[C@H](Cc1c[nH]cn1)NC(=O)[C@@H](N)CC(C)C)[C@@H](C)CC)[C@@H](C)CC)[C@@H](C)CC)[C@@H](C)CC)C(=O)O [Peptide 3563.0013] | 5.74 | – | – | 5.19 | – | – | 6.16
CC(C)C[C@H](NC(=O)[C@H](CC(C)C)NC(=O)[C@H](Cc1ccccc1)NC(=O)[C@H](CCCCN)NC(=O)[C@H](CO)NC(=O)[C@H](Cc1ccc(O)cc1)NC(=O)[C@H](CC(C)C)NC(=O)[C@@H](N)CCC(N)=O)C(=O)N[C@@H](CCCCN)C(=O)N[C@@H](C)C(=O)N[C@@H](CCC(=O)O)C(=O)N1CCC[C@H]1C(=O)N[C@@H](CC(C)C)C(=O)N[C@@H](C)C(=O)N[C@@H](Cc1ccccc1)C(=O)O [Peptide 3563.0011] | – | – | 7.29 | 7.08 | – | – | 6.23
TLTAFGFASADLLEI [Peptide 3563.0005] | – | – | 6.07 | – | 8.28 | – | 6.93
CC[C@H](C)[C@H](NC(=O)[C@H](CC(C)C)NC(=O)[C@H](Cc1ccc(O)cc1)NC(=O)[C@@H](NC(=O)[C@H](Cc1ccccc1)NC(=O)[C@@H](N)CCCCN)[C@@H](C)O)C(=O)N[C@@H](CC(N)=O)C(=O)N[C@@H](Cc1ccc(O)cc1)C(=O)N[C@H](C(=O)N[C@@H](CCC(N)=O)C(=O)N[C@@H](CC(=O)O)C(=O)N[C@@H](CCC(=O)O)C(=O)N[C@H](C(=O)N[C@@H](CC(N)=O)C(=O)N[C@H](C(=O)O)[C@@H](C)O)[C@@H](C)CC)[C@@H](C)CC [Peptide 3563.0025] | – | – | 4.86 | – | – | – | 7.89
CC[C@H](C)[C@H](N)C(=O)N[C@@H](CC(C)C)C(=O)N[C@@H](Cc1ccccc1)C(=O)N[C@@H](CO)C(=O)N[C@@H](Cc1ccc(O)cc1)C(=O)N[C@@H](Cc1ccccc1)C(=O)N[C@@H](CCC(N)=O)C(=O)N[C@@H](CC(=O)O)C(=O)N[C@@H](CC(C)C)C(=O)N[C@H](C(=O)N[C@H](C(=O)N[C@H](C(=O)N[C@@H](CC(C)C)C(=O)N1CCC[C@H]1C(=O)N[C@@H](Cc1ccccc1)C(=O)O)[C@@H](C)O)[C@@H](C)CC)C(C)C [Peptide 3563.0023] | 4.91 | – | – | 5.42 | – | – | 7.72
CC[C@H](C)[C@H](NC(=O)[C@H](CCC(=O)O)NC(=O)[C@@H](N)CC(=O)O)C(=O)N[C@@H](CC(N)=O)C(=O)N[C@H](C(=O)N[C@H](C(=O)N[C@@H](Cc1ccccc1)C(=O)N[C@@H](CO)C(=O)N[C@@H](CC(=O)O)C(=O)N[C@@H](Cc1ccc(O)cc1)C(=O)N[C@H](C(=O)N1CCC[C@H]1C(=O)N[C@@H](Cc1ccc(O)cc1)C(=O)N[C@H](C(=O)N[C@@H](Cc1ccccc1)C(=O)O)C(C)C)[C@@H](C)CC)[C@@H](C)CC)[C@@H](C)O [Peptide 3563.0026] | 5.34 | – | 4.82 | 5.16 | – | – | –
